One assay concerns the target T1, A1 (Homo sapiens, UniProt P30542).
T1 sequence (P30542 1-326): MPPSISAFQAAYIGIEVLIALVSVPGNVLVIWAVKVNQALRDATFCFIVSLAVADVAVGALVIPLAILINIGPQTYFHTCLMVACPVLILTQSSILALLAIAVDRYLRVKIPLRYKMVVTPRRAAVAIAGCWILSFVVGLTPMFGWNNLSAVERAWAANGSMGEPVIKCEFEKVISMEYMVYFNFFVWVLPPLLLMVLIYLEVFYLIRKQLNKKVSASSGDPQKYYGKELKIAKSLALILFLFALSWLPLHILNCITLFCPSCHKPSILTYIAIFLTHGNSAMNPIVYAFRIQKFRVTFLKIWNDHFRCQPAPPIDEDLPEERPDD
Briefly: A1 cell-based functional assay.

Assay [1] deals with T2, human adenosine A2a receptors (Homo sapiens, UniProt P29274).
T2 construct: expressed in transfected cells; host or cells: CHO-K1
T2 sequence (P29274 whole entry): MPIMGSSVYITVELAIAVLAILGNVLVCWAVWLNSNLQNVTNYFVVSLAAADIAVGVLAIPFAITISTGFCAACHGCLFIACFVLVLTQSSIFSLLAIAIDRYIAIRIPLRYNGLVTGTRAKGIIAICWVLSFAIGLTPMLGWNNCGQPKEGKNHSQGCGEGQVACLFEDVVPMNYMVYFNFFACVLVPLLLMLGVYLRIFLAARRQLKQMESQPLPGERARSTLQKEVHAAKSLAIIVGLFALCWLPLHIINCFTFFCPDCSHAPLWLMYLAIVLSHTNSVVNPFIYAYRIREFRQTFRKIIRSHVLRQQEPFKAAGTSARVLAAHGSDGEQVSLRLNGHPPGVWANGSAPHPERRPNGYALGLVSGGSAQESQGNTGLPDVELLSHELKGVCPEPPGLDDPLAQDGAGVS
Briefly: Adenosine A2a receptor cell-based functional assay (cAMP-inducible beta-galactosidase reporter). The settings on record: CHO-K1 cells overexpressing human adenosine A2a receptors; antagonist assay with 50 nM NECA. As for the experimental part: Nonspecific binding was determined by […] NECA. […] Data was analyzed in Microsoft Excel and GraphPad Prism programs. […] For agonist assay, adenosine A2a receptor agonist NECA was subsequently added and cell incubated at 37° C., 5% CO2 for 5 hrs before stopping reaction. In the case of antagonist assay, cells were incubated with antagonists for 5 minutes at R.T. followed by addition of 50 nM NECA. Cells were then incubated at 37° C., 5% CO2 for 5 hrs before stopping experiments by washing cells with PBS twice. […] Color was allowed to develop at 37° C. for 1 h or until reasonable signal appeared. […] Data was analyzed in Microsoft Excel and GraphPad Prism programs.

Broadly, the Ki is a measure of affinity in units of concentration, obtained from inhibition or displacement. Higher therefore signals lower affinity.

Molecule `Nc1nc(-c2ccccc2)c2c(n1)-c1cc(OCCN3CCOCC3)ccc1C2=O` [A, 2-Amino-8-(2-morpholin-4-yl-ethoxy)-4-phenyl-indeno[1,2-d]pyrimidin-5-one] came in with a Ki on A1 of 49.6 nM.

In the case of `CC1CCC(C)N1Cc1ccc2c(c1)-c1nc(N)nc(-c3ccccc3)c1C2=O` (centres unmarked) [B, 2-Amino-8-(2,5-dimethyl-pyrrolidin-1-ylmethyl)-4-phenyl-indeno[1,2-d]pyrimidin-5-one], the figures for the Ki (at A1; in assay [1]) were 37.3 nM and 13.1 nM, respectively. `Nc1nc(-c2ccccc2)c2c(n1)-c1cc(Cc3cccnc3)ccc1C2=O` [C, 2-Amino-4-phenyl-8-pyridin-3-ylmethyl-indeno[1,2-d]pyrimidin-5-one]: the results for the Ki (on A1; in assay [1]) were 4.4 nM and 0.4 nM, respectively.

These data come from patent publication US20090111804A1, “ARYLINDENOPYRIMIDINES AND THEIR USE AS ADENOSINE A2a” (priority 2007, published 2009).
